According to patent publication US6849653B2, “Substituted pyrazolyl benzenesulfamide compounds for the treatment of inflammation” (Pharmacia Corporation, priority 2001, dated 2005):
Where a name gives a salt, the structure may show the parent alone. Read-outs that look alike come from different tables or passages of the source.

Target: T1, IKK2 (IKKβ), rhIKK2 homodimer (Homo sapiens, UniProt O14920)
T1 construct: made in house; host or cells: insect cells (baculovirus; SF9)
T1 sequence (O14920 1-756): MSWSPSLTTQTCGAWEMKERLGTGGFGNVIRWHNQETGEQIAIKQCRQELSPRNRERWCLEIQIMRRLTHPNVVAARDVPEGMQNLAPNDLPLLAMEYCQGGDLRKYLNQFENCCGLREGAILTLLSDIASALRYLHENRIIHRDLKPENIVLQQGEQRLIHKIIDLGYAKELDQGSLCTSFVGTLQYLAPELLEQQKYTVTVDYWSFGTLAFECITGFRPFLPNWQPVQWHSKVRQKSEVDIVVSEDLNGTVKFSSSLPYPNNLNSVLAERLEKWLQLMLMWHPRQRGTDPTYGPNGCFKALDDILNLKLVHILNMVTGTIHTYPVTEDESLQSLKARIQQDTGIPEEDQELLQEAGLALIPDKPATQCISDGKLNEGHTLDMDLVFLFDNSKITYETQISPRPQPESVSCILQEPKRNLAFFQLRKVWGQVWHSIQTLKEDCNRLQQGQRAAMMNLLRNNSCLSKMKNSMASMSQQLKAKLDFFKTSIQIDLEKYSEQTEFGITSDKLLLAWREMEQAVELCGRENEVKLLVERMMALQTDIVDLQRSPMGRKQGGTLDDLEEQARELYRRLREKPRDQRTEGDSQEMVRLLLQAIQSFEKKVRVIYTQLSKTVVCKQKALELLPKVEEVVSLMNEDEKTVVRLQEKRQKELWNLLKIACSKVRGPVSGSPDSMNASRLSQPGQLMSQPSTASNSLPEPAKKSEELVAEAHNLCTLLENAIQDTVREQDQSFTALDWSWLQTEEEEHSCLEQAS
Test: IKKβ (IKK2) Resin Enzyme Assay
Format: biochemical
Settings: read-out: IKK2 Resin IC 50
Excerpt: cDNAs of human IKK1 and IKK2 were amplified by reverse transcriptase-polymerase chain reaction from human placental RNA (Clonetech). hIKK1 was subcloned into pFastBac HTa (Life Technologies) and expressed as N-terminal His6-tagged fusion protein. The hIKK2 cDNA was amplified using a reverse oligonucleotide primer which incorporated the peptide sequence for a FLAG-epitope tag at the C-terminus of the IKK2 coding region (DYKDDDDKD). The hIKK2:FLAG cDNA was subcloned into the baculovirus vector pFastBac. The rhIKK2 ([…]) mutant was constructed in the same vector used for wild type rhIKK2 using a QuikChange™ mutagenesis kit (Stratagene). Viral stocks of each construct were used to infect insect cells grown in 40L suspension culture. […] Cell lysates were stored at −80° C. until purification of the recombinant proteins was undertaken as described below.
Isolation of rhIKK2 Homodimer
A 10 liter culture of baculovirus-expressing IKK2 tagged with FLAG peptide was centrifuged and the cell pellet (MOI=0.1 and I=72 hrs) was re-suspended in buffer A. These cells were microfluidized, and centrifuged at 100,000×g for 45 min. Supernatant was passed over a G-25 column equilibrated with Buffer A. Protein peak was collected and incubated with anti-FLAG affinity resin on a rotator overnight in buffer B. The resin was washed in batch with 10-15 bed volumes of buffer C. Washed resin was poured into a column and rhIKK2 homodimer was eluted using 5 bed volumes of buffer B containing FLAG peptide. 5 mM DTT, 0.1% NP-40 and BSA (concentrated to 0.1% in final amount) was added to the eluted enzyme before concentrating in using an Amicon membrane with a molecular weight cut-off of 30 kDa. Enzyme was aliquoted and stored at −80° C.
IKKβ kinase activity was measured using a biotinylated IκBα peptide (Gly-Leu-Lys-Lys-Glu-Arg-Leu-Leu-Asp-Asp-Arg-His-Asp-Ser32-Gly-Leu-Asp-Ser36-Met-Lys-Asp-Glu-Glu) (American Peptide Co.). […] contained 5 μM biotinylated IκBα peptide, 0.1 μCi/reaction [γ-^33P] ATP (Amersham) (about 1×10^5 cpm), 1 μM ATP (Sigma), 1 mM DTT (Sigma), 2 mM MgCl2 (Sigma), 2 mM MnCl2 (Sigma), 10 mM NaF (Sigma), 25 mM Hepes (Sigma) buffer, pH 7.6 and 20 μl enzyme solution and […] inhibitor in a final volume of 50 μl. After incubation at 25° C. for 30 min, 150 μl resin (Dowex anion-exchange resin AG1X8 200-400 mesh) in 900 mM formate, pH 3.0 was added to each well to stop the reaction. Resin was allowed to settle for one hour and 50 ul of supernatant was removed to a Micolite-2 flat bottom plate (Dynex). 150 μl of scintillation fluid (Microscint 40) (Packard) was added to each well. Incorporation of [γ-^33P] ATP was measured using a Top-Count NXT (Packard).

Q: With CS(=O)(=O)c1ccc(-n2nc(C(N)=O)c3ccc4ccc(NC(=O)c5cccc(Cl)c5Cl)cc4c32)cc1 [Example 40, 8-[(2,3-dichlorobenzoyl)amino]-1-[4-(methylsulfonyl)phenyl]-1H-benzo[g]indazole-3-carboxamide] as the molecule, how does the IC50 (Table 2, values given as bins) read?
A: ≤ 1000 nM

Q: For NC(=O)c1nn(-c2ccc(F)cc2)c2c1ccc1ccc(N)cc12 [Example 46, 8-amino-1-(4-fluorophenyl)-1H-benzo[g]indazole-3-carboxamide], which IC50 (Table 3) is on record?
A: 10000 to 100000 nM

Q: How did the IC50 (Table 3) turn out when NC(=O)c1nn(-c2ccc(F)cc2)c2c1ccc1ccc(NC(=O)c3ccccc3Cl)cc12 [Example 47, 8-[(2-chlorobenzoyl)amino]-1-(4-fluorophenyl)-1H-benzo[g]indazole-3-carboxamide] was run?
A: 1000 to 10000 nM

Q: NC(=O)c1nn(-c2ccc3c(c2)OCO3)c2c1ccc1ccc(NC(=O)c3cccnc3Cl)cc12 [Example 55, 1-(1,3-benzodioxol-5-yl)-8-{[(2-chloropyridin-3-yl)carbonyl]amino}-1H-benzo[g]indazole-3-carboxamide] was tested. Which IC50 (Table 4, values given as bins) did it give?
A: ≤ 1000 nM

Q: Which IC50 (Table 2, values given as bins) does the source give for CS(=O)(=O)c1ccc(-n2nc(C(N)=O)c3ccc4ccc(NC(=O)c5cccnc5Cl)cc4c32)cc1 [Example 41, 8-{[(2-chloropyridin-3-yl)carbonyl]amino}-1-[4-(methylsulfonyl)phenyl]-1H-benzo[g]indazole-3-carboxamide] here?
A: ≤ 1000 nM

Q: How did the IC50 (Table 3) turn out when NC(=O)c1nn(-c2ccc(F)cc2)c2c1ccc1ccc(NC(=O)c3cccnc3Cl)cc12 [Example 51, 8-{[(2-chloropyridin-3-yl)carbonyl]amino}-1-(4-fluorophenyl)-1H-benzo[g]indazole-3-carboxamide] was run?
A: ≤ 1000 nM

Q: Which IC50 (Table 4, values given as bins) does the source give for NC(=O)c1nn(-c2ccc3c(c2)OCO3)c2c1ccc1ccc(N)cc12 [Example 56, 8-amino-1-(1,3-benzodioxol-5-yl)-1H-benzo[g]indazole-3-carboxamide] here?
A: 1000 to 10000 nM

Q: Cc1ccccc1C(=O)Nc1ccc2ccc3c(C(N)=O)nn(-c4ccc(S(C)(=O)=O)cc4)c3c2c1 [Example 38, 8-[(2-methylbenzoyl)amino]-1-[4-(methylsulfonyl)phenyl]-1H-benzo[g]indazole-3-carboxamide] was tested. Which IC50 (Table 2, values given as bins) did it give?
A: ≤ 1000 nM

Q: Which IC50 (Table 4, values given as bins) does the source give for NC(=O)c1nn(-c2ccc3c(c2)OCO3)c2c1cc(Br)c1ccc(NC(=O)c3cccnc3Cl)cc12 [Example 57, 1-(1,3-benzodioxol-5-yl)-5-bromo-8-{[(2-chloropyridin-3-yl)carbonyl]amino}-1H-benzo[g]indazole-3-carboxamide] here?
A: ≤ 1000 nM

Q: How did the IC50 (Table 3) turn out when NC(=O)c1nn(-c2ccc(F)cc2F)c2c1ccc1ccc(NC(=O)c3cccnc3Cl)cc12 [Example 52, 8-{[(2-chloropyridin-3-yl)carbonyl]amino}-1-(2,4-difluorophenyl)-1H-benzo[g]indazole-3-carboxamide] was run?
A: ≤ 1000 nM

Q: For NC(=O)c1nn(-c2ccc3c(c2)OCO3)c2c1ccc1ccc(NC(=O)c3ccccc3Cl)cc12 [Example 54, 1-(1,3-benzodioxol-5-yl)-8-[(2-chlorobenzoyl)amino]-1H-benzo[g]indazole-3-carboxamide], which IC50 (Table 4, values given as bins) is on record?
A: ≤ 1000 nM

Q: Which IC50 (Table 3) does the source give for NC(=O)c1nn(-c2ccc(F)cc2)c2c1cc(Br)c1ccc(NC(=O)c3ccncc3Cl)cc12 [Example 44] here?
A: ≤ 1000 nM

Q: With NC(=O)c1nn(-c2ccc(F)cc2)c2c1cc(-c1cccnc1)c1ccc(NC(=O)c3ccncc3Cl)cc12 [Example 45, 8-[(3-chloroisonicotinoyl(amino]-1-(4-fluorophenyl)-5-pyridin-3-yl-1H-benzo[g]indazole-3-carboxamidedihydrochloride] as the molecule, how does the IC50 (Table 3) read?
A: 1000 to 10000 nM

Q: Which IC50 (Table 2, values given as bins) does the source give for CS(=O)(=O)c1ccc(-n2nc(C(N)=O)c3ccc4ccc(NC(=O)c5ccccc5F)cc4c32)cc1 [Example 42, 8-[(2-fluorobenzoyl)amino]-1-[4-(methylsulfonyl)phenyl]-1H-benzo[g]indazole-3-carboxamide] here?
A: 1000 to 10000 nM
